According to PubChem BioAssay AID1259407 (Chemical Carcinogenesis Research Information System (CCRIS), 2018):
Calls of active or inactive are those of the source. No rule for the calls is given here.

Test system: CCRIS mutagenicity, Ames/micronucleus/aberration tests
Assay: CCRIS mutagenicity studies
[1] = Test System: AMES SALMONELLA TYPHIMURIUM, Strain/Indicator: TA98, Metabolic Activation: NONE, Method: STANDARD PLATE
[2] = Test System: AMES SALMONELLA TYPHIMURIUM, Strain/Indicator: TA100, Metabolic Activation: NONE, Method: STANDARD PLATE
[3] = Test System: AMES SALMONELLA TYPHIMURIUM, Strain/Indicator: TA100, Metabolic Activation: HAMSTER, LIVER, S-9, AROCLOR 1254 (10%), Method: PREINCUBATION
[4] = Test System: AMES SALMONELLA TYPHIMURIUM, Strain/Indicator: TA100, Metabolic Activation: NONE, Method: PREINCUBATION
[5] = Test System: AMES SALMONELLA TYPHIMURIUM, Strain/Indicator: TA100, Metabolic Activation: RAT, LIVER, S-9, AROCLOR 1254 (10%), Method: PREINCUBATION
[6] = Test System: AMES SALMONELLA TYPHIMURIUM, Strain/Indicator: TA1535, Metabolic Activation: HAMSTER, LIVER, S-9, AROCLOR 1254 (10%), Method: PREINCUBATION
[7] = Test System: AMES SALMONELLA TYPHIMURIUM, Strain/Indicator: TA1535, Metabolic Activation: NONE, Method: PREINCUBATION
[8] = Test System: AMES SALMONELLA TYPHIMURIUM, Strain/Indicator: TA1535, Metabolic Activation: RAT, LIVER, S-9, AROCLOR 1254 (10%), Method: PREINCUBATION
[9] = Test System: AMES SALMONELLA TYPHIMURIUM, Strain/Indicator: TA98, Metabolic Activation: NONE, Method: PREINCUBATION
[10] = Test System: AMES SALMONELLA TYPHIMURIUM, Strain/Indicator: TA1537, Metabolic Activation: NONE, Method: PREINCUBATION

In the case of `C=C(C)CN(CC)c1c([N+](=O)[O-])cc(C(F)(F)F)cc1[N+](=O)[O-]`, the mutagenic call (End Point: In vitro chromasomal aberrations, Test System: Chinese hamster ovary (CHO) cells, Metabolic Activation: None) was “inactive; negative”, the mutagenic call (Test System: Ames Salmonella typhimurium, Strain/Indicator: TA98, Metabolic Activation: None, Method: Plate incorporation) was “inactive; negative” and the mutagenic call (Test System: Ames Salmonella typhimurium, Strain/Indicator: TA98, Metabolic Activation: Rat, Liver, S-9, Aroclor, Method: Plate incorporation) was “inactive; negative”. The mutagenic call (Test System: Ames Salmonella typhimurium, Strain/Indicator: TA100, Metabolic Activation: None, Method: Plate incorporation) was “inactive; negative”, the mutagenic call (Test System: Ames Salmonella typhimurium, Strain/Indicator: TA100, Metabolic Activation: Rat, Liver, S-9, Aroclor, Method: Plate incorporation) was “active; positive (weak response)” and the mutagenic call (Test System: Ames Salmonella typhimurium, Strain/Indicator: TA1535, Metabolic Activation: None, Method: Plate incorporation) was “inactive; negative”. The mutagenic call (Test System: Ames Salmonella typhimurium, Strain/Indicator: TA1535, Metabolic Activation: Rat, Liver, S-9, Aroclor, Method: Plate incorporation) was “active; positive (weak response)”, the mutagenic call (Test System: Ames Salmonella typhimurium, Strain/Indicator: TA1537, Metabolic Activation: None, Method: Plate incorporation) was “inactive; negative” and the mutagenic call (Test System: Ames Salmonella typhimurium, Strain/Indicator: TA1537, Metabolic Activation: Rat, Liver, S-9, Aroclor, Method: Plate incorporation) was “inactive; negative”. For the same molecule, the mutagenic call (Test System: Ames Salmonella typhimurium, Strain/Indicator: TA1538, Metabolic Activation: None, Method: Plate incorporation) was “inactive; negative” and the mutagenic call (Test System: Ames Salmonella typhimurium, Strain/Indicator: TA1538, Metabolic Activation: Rat, Liver, S-9, Aroclor, Method: Plate incorporation) was “inactive; negative”.
With `CC/C(=C(/CC)c1ccc(OP(=O)(O)O)cc1)c1ccc(OP(=O)(O)O)cc1` the mutagenic call [1] was “inactive; negative”, the mutagenic call [2] was “inactive; negative” and the mutagenic call (Test System: E. COLI, Strain/Indicator: WP2 (HCR), Metabolic Activation: NONE, Method: STANDARD PLATE) was “inactive; negative”.
In the case of `ClC(Cl)(Cl)C1CO1` (centres undefined), the mutagenic call [3] was “active; positive”, the mutagenic call [4] was “active; positive” and the mutagenic call [2] was “active; positive”. For the same molecule, the mutagenic call [5] was “active; positive”, the mutagenic call (Test System: AMES SALMONELLA TYPHIMURIUM, Strain/Indicator: TA104, Metabolic Activation: NONE, Method: STANDARD PLATE) was “active; positive” and the mutagenic call [6] was “inactive; negative”. The mutagenic call [7] was “active; positive”, the mutagenic call [8] was “inactive; negative” and the mutagenic call (Test System: AMES SALMONELLA TYPHIMURIUM, Strain/Indicator: TA4001, Metabolic Activation: NONE, Method: STANDARD PLATE) was “active; positive”. The mutagenic call (Test System: AMES SALMONELLA TYPHIMURIUM, Strain/Indicator: TA4006, Metabolic Activation: NONE, Method: STANDARD PLATE) was “active; positive”.
For `O=C1OC(=O)c2cc([N+](=O)[O-])ccc21`, the mutagenic call (Test System: AMES SALMONELLA TYPHIMURIUM, Strain/Indicator: TA97, Metabolic Activation: HAMSTER, LIVER, S-9, AROCLOR 1254 (10%), Method: PREINCUBATION) was “inactive; negative”, the mutagenic call (Test System: AMES SALMONELLA TYPHIMURIUM, Strain/Indicator: TA97, Metabolic Activation: NONE, Method: PREINCUBATION) was “active; positive” and the mutagenic call (Test System: AMES SALMONELLA TYPHIMURIUM, Strain/Indicator: TA97, Metabolic Activation: RAT, LIVER, S-9, AROCLOR 1254 (10%), Method: PREINCUBATION) was “active; positive”. For the same molecule, the mutagenic call (Test System: AMES SALMONELLA TYPHIMURIUM, Strain/Indicator: TA98, Metabolic Activation: HAMSTER, LIVER, S-9, AROCLOR 1254 (10%), Method: PREINCUBATION) was “active; positive”, the mutagenic call [9] was “active; positive” and the mutagenic call (Test System: AMES SALMONELLA TYPHIMURIUM, Strain/Indicator: TA98, Metabolic Activation: RAT, LIVER, S-9, AROCLOR 1254 (10%), Method: PREINCUBATION) was “active; positive”. For the same molecule, the mutagenic call [3] was “inactive; negative”, the mutagenic call [4] was “inactive; negative” and the mutagenic call [5] was “inactive; negative”. For the same molecule, the mutagenic call [6] was “active; positive”, the mutagenic call [7] was “inactive; negative” and the mutagenic call [8] was “inactive; negative”. The mutagenic call (Test System: AMES SALMONELLA TYPHIMURIUM, Strain/Indicator: TA1537, Metabolic Activation: HAMSTER, LIVER, S-9, AROCLOR 1254 (10%), Method: PREINCUBATION) was “inactive; negative”, the mutagenic call [10] was “active; positive” and the mutagenic call (Test System: AMES SALMONELLA TYPHIMURIUM, Strain/Indicator: TA1537, Metabolic Activation: RAT, LIVER, S-9, AROCLOR 1254 (10%), Method: PREINCUBATION) was “active; positive”.
In the case of `Brc1ccc(-c2ccccc2)cc1`, the mutagenic call (Test System: AMES SALMONELLA TYPHIMURIUM, Strain/Indicator: TA98, Metabolic Activation: HAMSTER, LIVER, S-9, AROCLOR 1254, Method: PREINCUBATION) was “inactive; negative”, the mutagenic call [9] was “inactive; negative” and the mutagenic call (Test System: AMES SALMONELLA TYPHIMURIUM, Strain/Indicator: TA98, Metabolic Activation: RAT, LIVER, S-9, AROCLOR 1254, Method: PREINCUBATION) was “inactive; negative”. The mutagenic call (Test System: AMES SALMONELLA TYPHIMURIUM, Strain/Indicator: TA100, Metabolic Activation: HAMSTER, LIVER, S-9, AROCLOR 1254, Method: PREINCUBATION) was “inactive; negative”, the mutagenic call [4] was “inactive; negative” and the mutagenic call (Test System: AMES SALMONELLA TYPHIMURIUM, Strain/Indicator: TA100, Metabolic Activation: RAT, LIVER, S-9, AROCLOR 1254, Method: PREINCUBATION) was “inactive; negative”. For the same molecule, the mutagenic call (Test System: AMES SALMONELLA TYPHIMURIUM, Strain/Indicator: TA1535, Metabolic Activation: HAMSTER, LIVER, S-9, AROCLOR 1254, Method: PREINCUBATION) was “inactive; negative”, the mutagenic call [7] was “inactive; negative” and the mutagenic call (Test System: AMES SALMONELLA TYPHIMURIUM, Strain/Indicator: TA1535, Metabolic Activation: RAT, LIVER, S-9, AROCLOR 1254, Method: PREINCUBATION) was “inactive; negative”. The mutagenic call (Test System: AMES SALMONELLA TYPHIMURIUM, Strain/Indicator: TA1537, Metabolic Activation: HAMSTER, LIVER, S-9, AROCLOR 1254, Method: PREINCUBATION) was “inactive; negative”, the mutagenic call [10] was “inactive; negative” and the mutagenic call (Test System: AMES SALMONELLA TYPHIMURIUM, Strain/Indicator: TA1537, Metabolic Activation: RAT, LIVER, S-9, AROCLOR 1254, Method: PREINCUBATION) was “inactive; negative”.
For `O=C(O)c1cc(I)cc2cccnc12`, the mutagenic call [1] was “inactive; negative”, the mutagenic call (Test System: AMES SALMONELLA TYPHIMURIUM, Strain/Indicator: TA98, Metabolic Activation: RAT, LIVER, S-9, AROCLOR 1254, Method: STANDARD PLATE) was “inactive; negative” and the mutagenic call [2] was “inactive; negative”. The mutagenic call (Test System: AMES SALMONELLA TYPHIMURIUM, Strain/Indicator: TA100, Metabolic Activation: RAT, LIVER, S-9, AROCLOR 1254, Method: STANDARD PLATE) was “inactive; negative”, the mutagenic call (Test System: AMES SALMONELLA TYPHIMURIUM, Strain/Indicator: TA1535, Metabolic Activation: NONE, Method: STANDARD PLATE) was “inactive; negative” and the mutagenic call (Test System: AMES SALMONELLA TYPHIMURIUM, Strain/Indicator: TA1535, Metabolic Activation: RAT, LIVER, S-9, AROCLOR 1254, Method: STANDARD PLATE) was “inactive; negative”. The mutagenic call (Test System: AMES SALMONELLA TYPHIMURIUM, Strain/Indicator: TA1537, Metabolic Activation: NONE, Method: STANDARD PLATE) was “inactive; negative” and the mutagenic call (Test System: AMES SALMONELLA TYPHIMURIUM, Strain/Indicator: TA1537, Metabolic Activation: RAT, LIVER, S-9, AROCLOR 1254, Method: STANDARD PLATE) was “inactive; negative”.
